# According to patent publication US20220008508A1, “RELAXIN RECEPTOR 1 FOR USE IN TREATMENT AND PREVENTION OF HEART FAILURE” (Universität Heidelberg, priority 2018, published 2022):
# How the values were obtained:
# [1] = target: T1, rat RXFP1 (Rattus norvegicus, UniProt Q6R6I6); assay: P-PLB(S16) immunoblot in NRVMs transduced with rat RXFP1 virus; assay type: cell-based; conditions: 1 μM ML290 for 30 minutes
# T1 construct: expressed in transfected cells
# T1 sequence (Q6R6I6 1-758): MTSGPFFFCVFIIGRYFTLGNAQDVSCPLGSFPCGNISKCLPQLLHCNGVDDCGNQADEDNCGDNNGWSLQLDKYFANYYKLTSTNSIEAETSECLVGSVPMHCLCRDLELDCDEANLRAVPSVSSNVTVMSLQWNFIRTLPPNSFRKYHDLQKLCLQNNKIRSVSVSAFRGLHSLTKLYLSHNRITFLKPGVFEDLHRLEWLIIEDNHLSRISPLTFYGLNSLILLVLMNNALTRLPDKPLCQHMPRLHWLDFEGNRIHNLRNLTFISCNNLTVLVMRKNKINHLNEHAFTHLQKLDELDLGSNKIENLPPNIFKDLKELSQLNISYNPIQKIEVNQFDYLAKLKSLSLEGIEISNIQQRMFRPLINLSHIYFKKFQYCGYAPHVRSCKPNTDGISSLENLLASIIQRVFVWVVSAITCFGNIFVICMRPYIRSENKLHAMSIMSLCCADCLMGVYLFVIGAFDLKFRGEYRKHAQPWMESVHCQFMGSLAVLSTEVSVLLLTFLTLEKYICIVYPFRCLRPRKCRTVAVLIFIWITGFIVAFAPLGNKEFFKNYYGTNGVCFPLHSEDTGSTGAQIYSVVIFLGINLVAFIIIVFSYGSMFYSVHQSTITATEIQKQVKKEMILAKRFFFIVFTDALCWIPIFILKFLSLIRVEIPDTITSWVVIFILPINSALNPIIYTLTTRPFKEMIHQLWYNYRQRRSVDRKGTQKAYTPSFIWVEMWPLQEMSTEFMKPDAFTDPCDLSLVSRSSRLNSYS
# Description: (§1) Images were processed using Odyssey imaging software.
# [2] = target: T2, human RXFP1 (Homo sapiens, UniProt Q9HBX9); assay: P-PLB(S16) immunoblot in NRVMs transduced with human RXFP1 virus; assay type: cell-based, rat
# T2 construct: synthesized and cloned into a pCDNA3.1 plasmid with N-terminal FLAG-TAG; expressed in transfected cells; host or cells: neonatal rat ventricular cardiomyocytes (NRVMs) transduced with AAV6-huRXFP1
# Description: as §1
# [3] = target: rat (Rattus norvegicus) relaxin receptor 1 (RXFP1) with N-terminal FLAG-TAG, expressed in neonatal rat ventricular cardiomyocytes from AAV6-CMV-MLC260-FLAG-Rel1 Rattus (Rattus norvegicus) (UniProt Q6R6I6); assay: cell-based or functional assay
# [4] = tested on: TAC-induced heart failure in mice; assay: TAC heart failure model, echocardiography after AAV9-RXFP1 (rat) gene therapy with or without RLN pumps; assay type: in vivo, C57BL/6 mice; conditions: day 55, control AAV9.LUC virus, RLN pump
# Method: Transverse aortic constriction (TAC) operation was previously described (Rockman et al., 1991, Proc. Natl. Acad. Sci. 88: 8277-8281). TAC model was used as heart failure model. 8 weeks old C57BL/6 mice were weighted prior to the operation. TAC operation was performed on day 0 using 26-gauge blunt needle effectively reducing the diameter of the transverse aorta to approximately 0.46 mm (Rockman et al., 1994, Proc. Natl. Acad. Sci. 91(7): 2694-2698). Cardiac function was assessed by echocardiography (Vevo 2100 VisualSonics) before TAC operation (day −2), before virus infusion (day 7), before pump implantation (day 28), and at 2-month follow up (day 55) (FIG. 1A and B). […] Osmotic pumps (Alzet 2004) were implanted on day 28 with animals randomized to get either saline or recombinant relaxin pumps. Follow up assessments were performed on day 55 and the animals were sacrificed 3 days later. In addition, 17 mice served as control animals which underwent sham operation, followed by either saline or recombinant relaxin pump implantation.
# Echocardiography was performed using Vevo 2100, VisualSonics. The mice were shaved and held in prone position. […] The ejection fraction (EF), fractional shortening (FS), left ventricular internal diameter (LVIDd) and heart rate (HR) were calculated from 6 consecutive heartbeats in the M-mode using LV trace function.
# [5] = Circulating plasma levels of recombinant relaxin H2 by ELISA; assay type: in vivo, mice; conditions: all animals receiving RLN by osmotic pump
# Method: Circulating plasma levels of recombinant relaxin H2 were measured using a ready to use relaxin H2 Quantikine ELISA kit from R&D Systems (DLR200). Plasma samples were diluted 1:200 to stay within the detection range of the assay. 50 μL of negative control, positive control, standard and diluted samples were used for the measurement.
# [6] = target: T3, RXFP1 receptor (Rattus norvegicus, UniProt Q6R6I6); assay: cAMP production (cAMP Glo assay) in RXFP1-transduced NRVMs stimulated with RLN; assay type: cell-based
# T3 construct: expressed in transfected cells; host or cells: neonatal rat ventricular cardiomyocytes (NRVMs) transduced with AAV6-RXFP1
# T3 sequence (Q6R6I6 1-758): T1 sequence (Q6R6I6 1-758)
# Method: Manufacture's manual was followed. […] The luminescence was measured with a luminometer.
# [7] = tested on: TAC-induced heart failure in mice; assay: TAC heart failure model, echocardiography after huRXFP1 gene therapy with or without RLN pumps; assay type: in vivo, C57BL/6 mice; conditions: day 55, control AAV9.LUC virus, RLN pump
# Method: Heart failure model was generated by transverse aortic constriction operation (TAC) previously described (Rockman et al., 1991, Proc. Natl. Acad. Sci. 88: 8277-8281). 8 weeks old C57BL/6 mice were ordered and weighted prior to the operation. TAC operation was performed on day 0 using 26-gauge blunt needle effectively reducing the diameter of the transverse aorta to approximately 0.46 mm (Rockman et al., 1994, Proc. Natl. Acad. Sci. 91(7): 2694-2698). Cardiac function measurements were performed before Transverse aortic Constriction (TAC) operation (day −2) before virus infusion (day 7), before pump implantation (day 28), and at 2-month follow up time point (day 55) (FIG. 7A). […] Osmotic pumps were implanted on day 28 with animals randomized to get either saline or recombinant relaxin pumps. Follow up assessments were performed on day 55 and the animals were sacrificed 3 days later. In addition, 17 mice served as control animals that were sham operated followed by either saline or recombinant relaxin pumps implantation.
# Echocardiography was performed using Vevo 2100, VisualSonics. The mice were shaved on the chest and held in prone position. […] The ejection fraction (EF) was calculated from 6 consecutive heartbeats in the M-mode using LV trace function.
# [8] = tested on: adult mouse cardiomyocytes expressing RXFP1; assay: Ca2+ transient measurement in adult cardiomyocytes of RXFP1 transgenic mice; assay type: cell-based; conditions: isolated TG adult cardiomyocytes, 100 nM RLN, 1 minute
# Description: Adult mouse cardiac cells were isolated a modified protocol from Harding et al. (Harding et al., 1990, Cardioscience. 1: 49-54). The mouse heart was perfused with digestion buffer in the Langendorff technique, thus enabling dissociation of single cardiac cells. An adult male mouse (30-35 g) was quickly euthanatized by cervical dislocation. Incision areas on the abdomen and thorax were sterilized with 70% ethanol and opened with lateral cuts by scissors. The abdominal Vena Cava was exposed, and heparin was given I.V. Then the heart was exposed and cut out with a large portion of the aorta and quickly placed into a 6 cm Petri dish with 10 mL of room temperature perfusion buffer. The aorta was slid onto the cannula of the Langendorff apparatus and fixed with a double knots surgical suture. Perfusion was started immediately with a drip rate of ˜3.5 mL/min. Filling of the coronary arteries was checked and evaluated in order to determine, if the heart was correctly positioned on the cannula. In order to remove residual serum traces and free Ca2+, the heart was washed with perfusion buffer for 1 minute. After that the heart was perfused with digestion buffer containing a mixture of liberase (mixture of collagenases) and trypsin solution for 10 minutes. The perfusion was stopped, when the heart became flaccid and easily penetrable by fine tip forceps. […]
# Intracellular Ca^2+ transients were measured according to Yu et al. with modifications to fit available apparatus (Yu et al., 2013, J. Biol. Chem. 288(31): 22481-22492). […] Next the dish was protected from light and connected to an electrode system on the table of a high throughput inverted fluorescence microscope (Cytocypher). […] The alternative measurement of the bispectral emission (340 nm/380 nm) was performed with the fluorescence microscope for baseline and after 1, 5, and 10 minutes stimulation with NaCl, 100 nM RLN, and 10 nM ISO. The transients were calculated using transient calculated software from the cytocypher. The following parameters were analyzed: a) Peak Height, b) Departure velocity, and c) Return velocity.
# [9] = target: T4, huRXFP1 (Homo sapiens, UniProt Q9HBX9); assay: Pressure-volume loop hemodynamics in huRXFP1 TG animals after RLN administration; assay type: in vivo, mouse; conditions: RXFP1 transgenic animals vs WT animals, 10 μg RLN I.P.
# T4 construct: FLAG huRXFP1 was cloned onto a place holder plasmid; expressed in transfected cells; host or cells: transgenic mice, cardiomyocyte expression under the alpha-MHC promoter (in vivo)
# T4 sequence (Q9HBX9 with tags, fused parts or gaps): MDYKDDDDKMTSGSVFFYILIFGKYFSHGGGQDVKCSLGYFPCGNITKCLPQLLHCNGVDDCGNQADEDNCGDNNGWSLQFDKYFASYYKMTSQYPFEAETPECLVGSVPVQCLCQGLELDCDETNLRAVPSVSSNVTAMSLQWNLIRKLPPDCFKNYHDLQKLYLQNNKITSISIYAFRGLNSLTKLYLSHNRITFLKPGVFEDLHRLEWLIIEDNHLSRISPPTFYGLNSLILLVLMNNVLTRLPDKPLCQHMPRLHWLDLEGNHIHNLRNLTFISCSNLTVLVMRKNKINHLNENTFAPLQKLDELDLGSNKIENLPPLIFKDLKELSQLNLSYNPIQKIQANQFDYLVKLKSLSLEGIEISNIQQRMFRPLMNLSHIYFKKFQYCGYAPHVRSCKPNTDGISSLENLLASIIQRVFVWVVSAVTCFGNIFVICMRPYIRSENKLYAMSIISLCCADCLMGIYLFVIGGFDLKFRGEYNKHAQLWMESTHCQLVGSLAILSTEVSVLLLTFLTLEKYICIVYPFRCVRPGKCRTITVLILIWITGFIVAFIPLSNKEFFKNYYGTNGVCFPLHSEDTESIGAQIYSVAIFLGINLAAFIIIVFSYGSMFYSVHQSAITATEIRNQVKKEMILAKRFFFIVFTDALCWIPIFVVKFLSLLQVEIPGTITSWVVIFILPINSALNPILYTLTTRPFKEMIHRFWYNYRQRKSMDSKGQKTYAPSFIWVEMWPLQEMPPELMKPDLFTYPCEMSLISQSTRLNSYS
# Method: Pressure-volume loop (PV loop) measurement was performed modified from Abraham and Mao (Abraham and Mao (2015), J. Vis. Exp. (103): e52942). The animal was anesthetized according to the body weight with a cocktail of medetomidine, midazolam, and fentanyl intraperitoneally 15 minutes prior to the measurements. After the righting reflex was lost, the mouse was secured to the operating table with surgical tape. Prior to the measurement, the catheter tip was equilibrated in warm saline for 30 minutes. The neck and chest area was cleaned with ethanol and the fur was removed. An incision was made over the right carotid from mandible to sternum. The surrounding tissue was dissected to expose the right carotid, and the vagus nerve, which runs adjacent to the carotid, was […]. Sterile 6.0 silk suture was placed around the distal end (away from the chest) of the carotid artery, tied and secured. An additional suture was placed below the first suture on the carotid artery. The second suture was loosely tightened and clamped the carotid artery proximally to the second suture. […] The PV loops were continuously recorded throughout the experiment until 10 minutes after administration of the tested substances.
# minimum were calculated according to the manufacturer's recommendation (Transonic). […]
compound,measurement,setting,value
"CC(C)Oc1ccccc1C(=O)Nc1ccccc1C(=O)Nc1cccc(S(=O)(=O)C(F)(F)F)c1 [ML290, 2-Isopropoxy-N-(2-(3-(trifluoromethylsulfonyl)phenylcarbamoyl)phenyl)benzamide]",P-PLB(S16),[1],Marked increase
same,"P-PLB(S16), 1 μM ML290 vs 100 nM recombinant RLN",[2],No difference
same,P-PLB(S16),[2]; 1 μM ML290 for 30 minutes,Significant increase
recombinant relaxin H2 (from UniProt P04090 25-53; P04090 162-185) (ligand),RLN concentration of peak cAMP stimulation in transduced NRVMs,[3],10 nM
"RLN: recombinant relaxin H2 peptide hormone, RXFP1 agonist",Ejection fraction (EF),[4],47.79±13.38%
same,Fractional shortening (FS),[4],23.98±7.64
same,RLN plasma levels,[5],elevated
same,RLN concentration at peak stimulation of the RXFP1 receptor (cAMP),[6]; 30 minutes,10 nM
same,cAMP accumulation with higher recombinant RLN concentrations,[6]; above 10 nM RLN,no further increase
same,Ejection fraction (EF),[7],50.02±18.31%
same,Ca2+ transient Departure velocity,[8],trend toward an increase
same,Ca2+ transient Peak Height,[8],trend toward an increase
same,Ca2+ transient Return velocity,[8],trend toward an increase
same,Heart rate (HR),[9],significant increase
same,dP/dt maximum,[9],significant increase
